Experiment: Absorption maximum after colour development in a photographic silver halide layer according to Use Example I
Format: physicochemical
Details: not given
Description: The compounds of the formulae which follow are prepared according to methods which are in themselves known, from the corresponding 4-equivalentcoupling agents (the corresponding compounds with hydrogen in the position marked with *, in place of the substituents drawn). With regard to methods of manufacture, compare DT-OS or DT-AS 1,236,332, 2,043,271, 1,547,672 or 1,187,477. Next to the formula, the absorption maximum in nm is specified in each case (see footnote to Table I). ##SPC8##
*)After colour development of the coupling agents in a photographic silve
halide layer according to Use Example I
0.3 mmol of coupling agent of the formula (215) is dissolved in 2.0 ml of tricresyl phosphate/methylene chloride (3:7). The methylene chloride is evaporated off, 6.0 ml of an 8% strength aqueous solution of sodium isopropylnaphthalene-sulphonate, 20.0 ml of 6% strength gelatine solution and 3.4 ml of water are added and the mixture is adjusted to pH 6.5 and emulsified for 5 minutes by means of an ultrasonic apparatus with an output of 100 watt.
5.0 of coupling agent emulsion freshly treated with ultrasonics, 3.3 ml of silver bromide emulsion of pH 6.5, containing 1.4% of silver and 6.0% of gelatine, 2.0 ml of 1% strength aqueous solution of the hardener of the formula [formula] and 1.7 ml of water are mixed with one another and cast at 40°C on a substrated glass plate of size 13 cm × 18 cm. After solidifying at 10° C, the plate is dried in a drying cabinet with circulating air at 32° C.
A strip cut to 4.0 cm × 6.5 cm is exposed to 500 Lux/cm^2 under a step wedge for 2 seconds and is subsequently treated at 24° C as follows: […]

Compared with `CCOP(=O)(Cc1ccc(NC(=O)CC(=O)c2ccccc2)cc1)OCC` [(102)], `CCOP(=O)(OCC)C(C)(C)NC(=O)c1cccc(NC(=O)CC(=O)c2ccccc2)c1` [(108)] is higher in “Abs.max. (single maximum)” value: 438 nm for the first, 440 nm for the second.

Compared with `COc1ccc(C(=O)C(Cl)C(=O)Nc2ccc(OP(=O)(Oc3ccccc3)C(C)(C)C)cc2)cc1` (stereo not shown) [(146)], `CCCCOP(=O)(CCCc1ccc(NC(=O)c2ccc(OC)c(NC(=O)CC(=O)C(C)(C)C)c2)cc1)OCCCC` [(118)] is higher in “Abs.max. (single maximum)” value: 437 nm for the first, 438 nm for the second.

Going from `CCCCOP(=O)(CC(=O)Nc1cccc(NC(=O)CC(=O)C(C)(C)C)c1)OCCCC` [(105)] to `CCCCC(CC)COP(=O)(CCCOc1cccc(C(=O)Nc2cccc(C(=O)CC(=O)Nc3cc(C)ccc3OC)c2)c1)OCC(CC)CCCC` (stereo not shown) [(120)], the “Abs.max. (single maximum)” value falls from 436 nm to 434 nm.

For `CC(C)OP(=O)(OC(C)C)C1(C)CC(NC(=O)c2ccc(Cl)c(NC(=O)CC(=O)c3ccc(C(C)(C)C)cc3)c2)CC(C)(C)C1` (stereo not shown) [(140)], the “Abs.max. (single maximum)” value was 439 nm.

Same assay, conditions: pyrazolone coupling agents

First: CCCCC(CC)COP(=O)(CCCOc1cccc(C(=O)Nc2cccc(C(=O)NC3=NN(c4nc5ccccc5s4)C(=O)C3)c2)c1)OCC(CC)CCCC (stereo not shown) [(259)]
Second: CCCCC(CC)COP(=O)(CCCOc1cccc(C(=O)Nc2cccc(C(=O)NC3=NN(c4c(C)cc(Cl)cc4Cl)C(=O)C3)c2)c1)OCC(CC)CCCC (stereo not shown) [(269)]
The “Abs.max., first of two maxima (subsidiary maximum)” value (“Abs.max., first of two maxima” below) of the first is higher: 548 nm for the first, 438 nm for the second.

Compared with `CCCCOP(=O)(CCCOc1cc(OCCCP(=O)(OCCCC)OCCCC)cc(C(=O)Nc2cccc(C(=O)NC3=NN(c4c(Cl)cc(OC)cc4Cl)C(=O)C3)c2)c1)OCCCC` [(266)], `CCCCOP(=O)(CCCOc1cc(OCCCP(=O)(OCCCC)OCCCC)cc(C(=O)Nc2cccc(C(=O)NC3=NN(c4cccc(Cl)c4)C(=O)C3)c2)c1)OCCCC` [(255)] is higher in “Abs.max., first of two maxima” value: 436 nm for the first, 438 nm for the second.

`CC(C)OP(=O)(CCCOc1cccc(C(=O)Nc2ccc(C(=O)NC3=NN(c4c(Cl)cc(Cl)cc4Cl)C(=O)C3)cc2)c1)OC(C)C` [(210)] and `CC(C)OP(=O)(CCCCCOc1cccc(C(=O)Nc2ccc(C(=O)NC3=NN(c4c(Cl)cc(Cl)cc4Cl)C(=O)C3)cc2)c1)OC(C)C` [(244)] are the same in “Abs.max., first of two maxima” value: 434 nm for the first, 434 nm for the second.

`CCOP(=O)(CCCCCOc1cc(OCCCCCP(=O)(OCC)OCC)cc(C(=O)Nc2ccc(C(=O)NC3=NN(c4c(Cl)cc(Cl)cc4Cl)C(=O)C3)cc2)c1)OCC` [(212)] and `CCCCOP(=O)(CCCOc1cccc(C(=O)Nc2cccc(C(=O)NC3=NN(c4c(Cl)cc(Cl)cc4Cl)C(=O)C3)c2)c1)OCCCC` [(220)] are the same in “Abs.max., first of two maxima” value: 434 nm for the first, 434 nm for the second.

`CC(C)OP(=O)(CCCOc1cc(OCCCP(=O)(OC(C)C)OC(C)C)cc(C(=O)Nc2cccc(C(=O)NC3=NN(c4c(Cl)cc(Cl)cc4Cl)C(=O)C3)c2)c1)OC(C)C` [(240)] and `CC(C)OP(=O)(CCCOc1cccc(C(=O)Nc2cccc(C(=O)NC3=NN(c4c(Cl)cc(Cl)cc4Cl)C(=O)C3)c2)c1)OC(C)C` [(232)] are the same in “Abs.max., first of two maxima” value: 434 nm for the first, 434 nm for the second.

Compared with `CCOP(=O)(CCCCCOc1cccc(C(=O)Nc2cccc(C(=O)NC3=NN(c4ccccc4)C(=O)C3)c2)c1)OCC` [(227)], `CCOP(=O)(CCCOc1cccc(C(=O)Nc2cccc(C(=O)NC3=NN(c4ccccc4)C(=O)C3)c2)c1)OCC` [(223)] is higher in “Abs.max., first of two maxima” value: 438 nm for the first, 440 nm for the second.

Compared with `CCCCC(CC)COP(=O)(CCCOc1cccc(C(=O)Nc2cccc(C(=O)NC3=NN(c4nc5ccccc5s4)C(=O)C3)c2)c1)OCC(CC)CCCC` (stereo not shown) [(259)], `CCCCC(CC)COP(=O)(CCCOc1cccc(C(=O)Nc2cccc(C(=O)NC3=NN(c4c(C)cc(Cl)cc4Cl)C(=O)C3)c2)c1)OCC(CC)CCCC` (stereo not shown) [(269)] is lower in “Abs.max., second of two maxima (absorption maximum)” value (“Abs.max., second of two maxima” for short): 583 nm for the first, 540 nm for the second.

Going from `CCCCOP(=O)(CCCOc1cc(OCCCP(=O)(OCCCC)OCCCC)cc(C(=O)Nc2cccc(C(=O)NC3=NN(c4c(Cl)cc(OC)cc4Cl)C(=O)C3)c2)c1)OCCCC` [(266)] to `CCCCOP(=O)(CCCOc1cc(OCCCP(=O)(OCCCC)OCCCC)cc(C(=O)Nc2cccc(C(=O)NC3=NN(c4cccc(Cl)c4)C(=O)C3)c2)c1)OCCCC` [(255)], the “Abs.max., second of two maxima” value falls from 540 nm to 536 nm.

Compared with `CC(C)OP(=O)(CCCOc1cccc(C(=O)Nc2ccc(C(=O)NC3=NN(c4c(Cl)cc(Cl)cc4Cl)C(=O)C3)cc2)c1)OC(C)C` [(210)], `CC(C)OP(=O)(CCCCCOc1cccc(C(=O)Nc2ccc(C(=O)NC3=NN(c4c(Cl)cc(Cl)cc4Cl)C(=O)C3)cc2)c1)OC(C)C` [(244)] is lower in “Abs.max., second of two maxima” value: 543 nm for the first, 542 nm for the second.

`CCOP(=O)(CCCCCOc1cc(OCCCCCP(=O)(OCC)OCC)cc(C(=O)Nc2ccc(C(=O)NC3=NN(c4c(Cl)cc(Cl)cc4Cl)C(=O)C3)cc2)c1)OCC` [(212)] and `CCCCOP(=O)(CCCOc1cccc(C(=O)Nc2cccc(C(=O)NC3=NN(c4c(Cl)cc(Cl)cc4Cl)C(=O)C3)c2)c1)OCCCC` [(220)] are the same in “Abs.max., second of two maxima” value: 544 nm for the first, 544 nm for the second.

Going from `CC(C)OP(=O)(CCCOc1cc(OCCCP(=O)(OC(C)C)OC(C)C)cc(C(=O)Nc2cccc(C(=O)NC3=NN(c4c(Cl)cc(Cl)cc4Cl)C(=O)C3)c2)c1)OC(C)C` [(240)] to `CC(C)OP(=O)(CCCOc1cccc(C(=O)Nc2cccc(C(=O)NC3=NN(c4c(Cl)cc(Cl)cc4Cl)C(=O)C3)c2)c1)OC(C)C` [(232)], the “Abs.max., second of two maxima” value falls from 544 nm to 541 nm.

First: CCOP(=O)(CCCCCOc1cccc(C(=O)Nc2cccc(C(=O)NC3=NN(c4ccccc4)C(=O)C3)c2)c1)OCC [(227)]
Second: CCOP(=O)(CCCOc1cccc(C(=O)Nc2cccc(C(=O)NC3=NN(c4ccccc4)C(=O)C3)c2)c1)OCC [(223)]
The “Abs.max., second of two maxima” value of the first is lower: 532 nm for the first, 534 nm for the second.

From US3984432A, “Color photographic recording material” (priority 1973, dated 1976)
